These are literature values, as cited in patent US8318203B2, “Form of administration of racecadotril” (Bioprojet, priority 2006, dated 2012).

The conditions of data set [1]: racecadotrilate, active metabolite of the pro-drug racecadotril.

Take `CC(=O)SCC(Cc1ccccc1)C(=O)NCC(=O)OCc1ccccc1` (racemic) [racecadotril, benzyl (RS)-2-[[2-[(acetylsulphanyl)methyl]-3-phenylpropanoyl]amino]acetate]: the solubility in water result was “insoluble in water”. Turning to `O=C(O)CNC(=O)C(CS)Cc1ccccc1` (racemic) [racecadotrilate], the half-life result in data set [1] is “three to four”.
